Laboratory results reported in patent US20260191841A1, “TREATMENT OF CHRONIC KIDNEY DISEASE IN TYPE I DIABETES MELLITUS” (BAYER AKTIENGESELLSCHAFT, priority 2022, published 2026).

Columns and labels:
[1] = FIDELITY UACR mixed model, restricted to patients with UACR>=200 mg/g and eGFR between 25 and 90 ml/min/1.73 m^2; format: in vivo, human; details: FIDELITY restricted population
Protocol: UACR will be analyzed assuming a lognormal distribution. Assumptions for the UACR ratios to baseline at 6 months are based on the FIDELITY UACR mixed model restricted to patients with UACR>=200 mg/g and eGFR between 25 and 90 ml/min/1.73 m^2.
In the FIDELITY restricted population, the UACR ratio to baseline after 4 months was 0.61 and 0.53 after 12 months in the finerenone group. The value, using interpolation, at 6 months was estimated to be 0.59. As a conservative approach, we will assume the treatment ratio (finerenone/placebo) over 6 months to be 0.7 (i.e., the difference in UACR ratio to baseline between finerenone and placebo to be 30%). The standard deviation was calculated to range from 0.75 and 1.0 between month 4 and 12. Using linear interpolation, at month 6 it was assumed to be approximately 0.8.

[2] = patients with T2D; coadministered with an ACEI or an ARB; cited from earlier work
[3] = patients with CKD and T1D; vs placebo; cited from earlier work

Row | SMILES | UACR ratio to baseline ([1]; after 4 months, finerenone group) | UACR ratio to baseline ([1]; after 12 months, finerenone group) | UACR ratio to baseline ([1]; at 6 months, estimated using interpolation) | cardiovascular morbidity [2] | progression of diabetic kidney disease [2] | albuminuria [3] | rate of kidney function decline [3]
1 | CCOc1ncc(C)c2c1[C@H](c1ccc(C#N)cc1OC)C(C(N)=O)=C(C)N2 [finerenone, (4S)-4-(4-cyano-2-methoxyphenyl)-5-ethoxy-2,8-dimethyl-1,4-dihydro-1,6-naphthyridine-3-carboxamide] | 0.61 | 0.53 | 0.59 | reduces cardiovascular morbidity | delays the progression of diabetic kidney disease | – | –
2 | Oc1ncnc2[nH]ncc12 [allopurinol] | – | – | – | – | – | did not reduce albuminuria | nor delay the rate of kidney function decline
